According to US11083677B2, “Cosmetic base including amide alcohol, and cosmetic” (Kokyu Alcohol Kogyo Co., Ltd., priority 2016, dated 2021):
Entries after “also recorded” stand apart in the source; their conditions may differ.

Assays:
[1] = Evaluation of solubility and gelling ability (critical gelation concentration, sample tube inversion method); type: physicochemical
Experimental: The amide alcohol and each liquid were heated and mixed, and the critical gelation concentration was measured by sample tube inversion method.
Sample tube used: used tube: Maruemu screw tube No. 7 (trunk diameter 35 mm, total length 78 mm)

[2] = Solubility of glycerin with various alcohols

Row | SMILES | solubility and gelling ability ([1]; Ethanol) | behaviour with glycerin (in words) ([1]; Glycerin) | concentration for thickening ([1]; Glycerin) | behaviour with glycerin (in words) ([1]; Glycerin, listed as 4HN CHBA) | concentration for thickening ([1]; Octyldodecanol) | solubility and gelling ability ([1]; Octyldodecyl myristate) | solubility and gelling ability ([1]; Squalane) | solubility and gelling ability ([1]; Triethylhexanoin) | behaviour with water (in words) ([1]; Water) | solubility and gelling ability ([1]; Water) | solubility and gelling ability ([1]; Glycerin) | solubility and gelling ability ([1]; Octyldodecanol) | solubility with glycerin (in words) [2] | behaviour with ester oil (in words) [1]
1 | O=C(CCCO)NC1CCCCC1 [4HN-CHBA, 4-hydroxy-N-cyclohexyl, butyramide] | S | thickened | (≥12 wt %) | thickening/gelation | (≥18 wt %) | I | I | I | solubility in water | S | – | – | – | –
2 | CCCCC(CC)CNC(=O)CCCO (centres unmarked) [4HN-EHBA, 4-hydroxy-N-2-ethylhexyl, butyramide] | S | – | – | – | – | S | I | I | – | I | S | S | can be dissolved | –
3 | CCCCCCCCCCCCNC(=O)CCCO [4HN-LBA, 4-hydroxy-N-lauryl, butyramide] | S | gelled | – | – | – | – | – | – | emulsification-gelled | – | – | – | – | gelled
4 | CCCCCCCCCCCCCCNC(=O)CCCO [4HN-MBA, 4-hydroxy-N-myristyl, butyramide] | S | – | – | – | – | – | – | – | – | – | I | – | – | –
5 | CCCCCCCCNC(=O)CCCO [4HN-OBA, 4-hydroxy-N-octyl, butyramide] | S | gelled; also recorded: thickening/gelation | – | – | – | – | I | – | solubility in water | S | – | S | – | gelled
6 | CCCCCCCC/C=C\CCCCCCCCNC(=O)CCCO [4HN-OLBA, 4-hydroxy-N-oleyl, butyramide] | S | – | – | – | – | – | – | – | – | I | I | S | – | –
7 | CCCCCCCCCCCCCCCCCCNC(=O)CCCO [4HN-STBA, 4-hydroxy-N-stearyl, butyramide] | I | – | – | – | – | – | – | – | – | I | I | – | – | –
8 | CCCCCCCCCCCCNC(=O)CCCCCO [6HN-LHA, 6-hydroxy-N-lauryl, hexylamide] | S | – | – | – | – | – | – | – | – | I | I | – | – | –
